# Read-outs that look alike come from different tables or passages of the source.
# What was measured:
# [1] = tested on: cholesterol synthesis in liver slices; experiment: Cholesterol synthesis from [1-14C] acetic acid in liver slices (Experimental Example 2); assay type: cell-based, male Wistar rats; conditions: drug final concentration 0.1-1.0 mM, 37° C., 120 minutes; control 100; Table 2
# Description: Liver slices (0.5 mm) were prepared from male Wistar rats 5 weeks old acclimated for 10 days in a bright/dark inversion raising chamber (bright period: 8:00 p.m.-8:00 a.m.). […] Incubation was carried out at 37° C. for 120 minutes in 95% oxygen and 5% carbon dioxide. The reaction was stopped by adding 1 m.iota. of 15% potassium hydroxide/ethanol, and saponification was carried out at 80° C. for 2 hours. The sterol fraction was extracted by petroleum ether and was evaporated to driness. Thereafter, 1 m.iota. of acetone/ethanol (1:1) and 1 m.iota. of 0.5% digitonine were added, and the mixture was left standing for a night at room temperature. The precipitate was collected by centrifugal separation and was washed with 2 m.iota. of acetone/ether (1:1). The precipitate was further centrifuged. After the supernatant was discarded, the precipitate was dissolved in methanol and its radioactivity was measured.
# bile secretion = experiment: Cholagogic action, bile secretion (Experimental Example 5); assay type: in vivo, male Wistar rats; conditions: intraduodenal
# Description: After male Wistar rats 7 weeks old were fasted for 24 hours, they were anesthetized by the interperitoneal administration of 1.25 g/kg (volume 2 m.iota./kg) of urethane. A polyethylene canula (SP-10, a product of Natsume Seisakusho) was inserted into a bile duct and after the bile was caused to flow out for 30 minutes, the bile was collected in the cource of 1 hour. Thereafter, each test drug was suspended or dissolved in a 1% aqueous Tween-80 solution, and was administered into the duodenum at a rate of 5 m.iota./kg. Furthermore, the bile was collected every hour in the course of five hours, and its weight was measured. Only a 1% Tween-80 solution was given as a control.
# The results are tabulated in Tables 6, 7, 8, 9 and 10, wherein the bile secretion amount every hour was represented by a percentage with the bile secretion amount (mg) one hour before the dose of the test drug being 100.
# Acute toxicity test = conditions: mouse, in vivo, ip; male S.P.P. mice, abdominally administered; Table 11
# Description: The acute toxicity test was carried out by abdominally administering each test drug to male S.P.P. mice and determining an LD50 value.
# [2] = tested on: cholic acid and chenodeoxycholic acid synthetic activity in liver cells; experiment: Synthetic activity of bile acid (cholic acid and chenodeoxycholic acid) in incubated liver cells (Experimental Example 3); assay type: cell-based, male Wistar rats; conditions: Rattus norvegicus, Hepatocyte, 24 hours, 37° C., control 100; for activity at 1 µM: 10^-6 M; for activity at 0.1 µM: 10^-7 M; for activity at 0.01 µM: 10^-8 M
# Description: Influences on Synthetic Activity of Bilic Acid in Incubated Liver Cell
# The liver cells were separated from male Wistar rats 5.0-5.5 weeks old using a reflux method in accordance with the method of Nakamura et al (Toshikazu Nakamura "The Experimental Method for the Primary Cultured Hepatocytes", 1987). In this case, the separation of the cells was started at 9-10:00 a.m. The separated liver cells were floated in a Williams E medium inactivated by heat-treatment and containing 10% FBS, 20 mU/m.iota. insulin, […] dexamethasone, 100 IU/m.iota. peniciline and 100 μg/m.iota. streptomycin so that the cell density became 1×10^5 cells/cm^2 /0.2 m.iota.. The liver cells were planted in a cell density of 1×10^5 cells/cm^2 /0.2 m.iota. in a dish having a diameter of 60 mm. After incubation at 37° C. for 4 hours, a medium exchange was made and the medium was changed to 3 m.iota.. Next, [4-^14 C] cholesterol was added in an amount of 11.655 kBq per dish, and a 0.33% ethanol solution of each test drug was added. Control used only 0.33% ethanol. After incubation was carried out at 37° C. for 24 hours, the synthetic activity of cholic acid and chemodexycholic acid generated in the cells and the medium were measured.
# Measurement of Cholic Acid and Chenodeoxycholic Acid Synthetic Activity
# The measurement of cholic acid and chenodeoxycholic acid synthetic activity was carried out in accordance with the method of M. G. Pricen et al (Hans M. G. Pricen, Chrisstine M. G. HuJismans, Folkerr Kuipers, Roel J. Vonk and Herman Jan M. Kempen, J. Clin. Invest., 78: 1064-1071, 1986). Twenty-four hours later, the cells and the medium were collected from the incubated liver cells and the cells were pulverized by a ultrasonic pulverizer. Bile acid was separated and eluted by a column cartridge having an opposite phase system, i.e., "Sep-pak"® C18 (Waters Associates, Milford, Mass.), and the conjugation of conjugated bile acid was hydrolyzed using choloylglycine hydrolase. The extraction of bile acid was carried out using chloroform after the solution was rendered acidic by hydrochloric acid. The extract was dissolved in 100 μ.iota. of water:methanol (1:4, containing 40 μg/10 μ.iota. cholic acid and 100 μg/100 μ.iota. chenodeoxycholic acid). 80 μ.iota. of this solution was spotted onto an aluminum plate (MERCK, ART 5582) and was developed using a developing solution consisting of benzene/1,4-dioxane/acetic acid (20:10:2). After the TLC plate was exposed to an iodine gas stream and each spot of bile acid was confirmed, it was cut off and its radioactivity was measured by a liquid scintillation counter. To correct the proportion of elution of the Sep-pak and the hydroclysis and extraction of conjugated bile acid by choloylglycine hydrolase, 2 nCi of [^3 H(G)] taurocholic acid was added and 3H of the spot of cholic acid was measured after the supersonic pulverization and correction was thus carried out (TsuJita, Y., Kuroda, M., Shimada, Y., Tanzawa, K., Arai, M., Kenko, I., Tanaka, M., Tarumi, C., Watanabe, Y., and Fujii, Biochemical et Biophysics Acta. 877:50-60, 1986).
# Non-radioactive cholic acid and chenodeoxycholic acid were added as a carrier, to clarify the position of the spot by the iodine gas stream when bile acid was developed, but for the β-muricholic acid, the position of the spot was indefinite even when the non-radioactive acids were added. Therefore, the portion estimated by the Rf value described in the reference was cut off and measured again.
# hyperlipemia = experiment: Anti-hyperlipemia test in rats on high fat food (Experimental Example 1); assay type: in vivo, Male Wistar rats; conditions: peroral once a day, two weeks, control 100, Table 1
# Text: Male Wistar rats 6.5 weeks old were allowed to freely intake a high fat food (containing 1% of cholesterol, 0.5% of sodium cholate, 12% of beef tallow and 20% of standard chow) in the cource of two weeks, to thus cause an outbreak of hyperlipemia. The dose of the drug was started simultaneously with the application of the high fat food, and was perorally given once a day through a stomach tube until the end of the experiment. The drugs were all suspended in a cane sugar fatty acid ester and were administered. The oily compounds were adjusted in advance to 100 mg/m.iota. by diethyl ether. A suitable amount was collected at the time of the dose and after diethyl ether was evaporated and removed, it was suspended in a cane sugar fatty acid ester (1% ryoto sugar ester) and then given. After the final dose of the drug, the rats were fasted for about 18 hours, and the blood was sampled to measure the blood serum lipid. The blood serum lipid was measured by using a TBA-380 biochemical analyzer (a product of Toshiba Medical Co.,) unless a particular hindrance occurred.
# [3] = Table 4, read-out: Relative amount of synthesized chenodeoxycholic acid
# [4] = Table 4, read-out: Relative amount of synthesized cholic acid
# [5] = 0-1 hour after dose, control 82.9, Table 6
# [6] = 1-2 hour after dose, control 74.1, Table 6
# [7] = 2-3 hour after dose, control 66.1, Table 6
# [8] = 3-4 hour after dose, control 59.8, Table 6
# [9] = 4-5 hour after dose, control 53.3, Table 6
# [10] = Table 3, read-out: Relative amount of synthesized chenodeoxycholic acid
# [11] = Table 3, read-out: Relative amount of synthesized cholic acid
Compound,Relative amount of synthesized cholesterol (%) [1] [%],LD50 (Acute toxicity test) [mg/kg],"activity at 1 µM [2, 3] [%]","activity at 1 µM [2, 4] [%]","Bile secretion amount, percentage of the hour before dose (bile secretion; [5]) [%]","Bile secretion amount, percentage of the hour before dose (bile secretion; [6]) [%]","Bile secretion amount, percentage of the hour before dose (bile secretion; [7]) [%]","Bile secretion amount, percentage of the hour before dose (bile secretion; [8]) [%]","Bile secretion amount, percentage of the hour before dose (bile secretion; [9]) [%]",further results
"CCOC(C)O[C@@H]1OC=C(C(=O)OC)[C@H]2CC=C(C=O)[C@@H]12 (stereo partly drawn) [Definite Example 22, methyl (1S, 4aS, 7aS)-1-[1-(ethoxy)ethoxy]-7-formyl-1,4a, 5,7a-tetrahydrocyclopenta[c]pyran-4-carboxylate]",86.2,–,–,–,–,–,–,–,–,–
"COC(=O)C1=COC(O)[C@@H]2C(C=O)=CC[C@H]12 (stereo partly drawn) [Definite Example 23, methyl (4aS, 7aS)-7-formyl-1,4a, 5,7a-tetrahydro-1-hydroxycyclopenta[c]pyran-4-carboxylate]",80.1,–,–,–,–,–,–,–,–,–
"COC(=O)C1=COC(O)[C@@H]2[C@H](C)CC[C@H]12 (stereo partly drawn) [Definite Example 31, methyl (4aS, 7R, 7aR)-1,4a, 5,6,7,7a-hexahydro-1-hydroxy-7-methylcyclopenta[c]pyran-4-carboxylate]",–,814,113,105,–,–,–,–,–,"Bile secretion amount, percentage of the hour before dose (bile secretion; 0-1 hour after dose, control 84.1, Table 8): 126.7%; Bile secretion amount, percentage of the hour before dose (bile secretion; 1-2 hour after dose, control 72.5, Table 8): 88.0%; Bile secretion amount, percentage of the hour before dose (bile secretion; 2-3 hour after dose, control 63.8, Table 8): 73.0%; Bile secretion amount, percentage of the hour before dose (bile secretion; 3-4 hour after dose, control 56.7, Table 8): 63.7%; Bile secretion amount, percentage of the hour before dose (bile secretion; 4-5 hour after dose, control 51.2, Table 8): 55.1%; Blood serum cholesterol (%) (hyperlipemia; 10 mg/kg): 82.0%; Blood serum triglyceride (%) (hyperlipemia; 10 mg/kg): 79.0%; Blood serum cholesterol (%) (hyperlipemia; 30 mg/kg): 96.1%; Blood serum triglyceride (%) (hyperlipemia; 30 mg/kg): 76.5%"
"COC(=O)C1=COC(OC(=O)c2ccccc2)C2C(C)=CCC12 [Definite Example 36, methyl (2S, 4aS, 7aS)-1-benzoyloxy-1,4a, 5,7a-tetrahydro-7-methylcyclopenta[c]pyran-4-carboxylate]",72.4,–,–,–,–,–,–,–,–,–
"COC(=O)C1=CO[C@@H](OC(C)=O)[C@@H]2C(C)=CC[C@H]12 [Definite Example 38, methyl (1S, 4aS, 7aS)-1-acetoxy-1,4a, 5,7a-tetrahydro-7-methylcyclopenta[c]pyran-4-carboxylate]",72.8,–,–,–,–,–,–,–,–,–
"CC1=COC(O)[C@H]2[C@@H]1CC[C@@H]2C (stereo partly drawn) [Definite Example 43, (4aS, 7S, 7aR)-1,4a, 5,6,7,7a-hexahydro-4,7-dimethylcyclopenta[c]pyran-1-ol]",–,231,105,109,156.2,95.2,76.1,65.7,58.3,–
"C[C@H]1COC(O)[C@H]2[C@@H]1CC[C@@H]2C (stereo partly drawn) [Definite Example 44, (4R, 4aR, 7S, 7aR)-1,3,4,4a, 5,6,7,7a-octahydro-4,7-dimethylcyclopenta[c]pyran-1-ol]",–,389,155,130,137.2,95.0,78.4,66.5,59.8,–
"C[C@@H](CO)[C@H]1CC[C@H](C)[C@H]1CO [Definite Example 45, (2R)-2-[(1R, 2R, 3S)-2-(hydroxymethyl)-3-methylcyclopent-1-yl]propan-1-ol]",–,406,–,–,163.8,99.7,78.6,67.8,59.1,"Bile secretion amount, percentage of the hour before dose (bile secretion; 0-1 hour after dose, control 87.7, Table 7): 163.4%; Bile secretion amount, percentage of the hour before dose (bile secretion; 1-2 hour after dose, control 75.3, Table 7): 99.6%; Bile secretion amount, percentage of the hour before dose (bile secretion; 2-3 hour after dose, control 65.0, Table 7): 75.2%; Bile secretion amount, percentage of the hour before dose (bile secretion; 3-4 hour after dose, control 58.7, Table 7): 61.7%; Bile secretion amount, percentage of the hour before dose (bile secretion; 4-5 hour after dose, control 51.8, Table 7): 53.3%; activity at 1 µM [2, 10]: 152%; activity at 1 µM [2, 11]: 146%; activity at 0.1 µM [2, 10]: 119%; activity at 0.1 µM [2, 11]: 121%; activity at 0.01 µM [2, 10]: 112%; activity at 0.01 µM [2, 11]: 108%"
